Consider 16 compounds from US20260132158A1, “PHENYL OXY AMIDE KINASE INHIBITORS” (THE TRANSLATIONAL GENOMICS RESEARCH INSTITUTE, priority 2022, published 2026).

For the experiment, the target named is T1, RON Kinase (Homo sapiens, UniProt Q04912).
T1 construct: purchased Promega V8071
Description: RON Kinase ADP Glo Assay. Format: biochemical. The note with it: ratio cMET IC50 / RON IC50. Here is the method:
RON Kinase ADP Glo Assay • Assay Buffer: 40 mM Tris-HCl, pH7.5, 20 mM MgCl2, 0.1 mg/mL BSA • RON Kinase+ADP-Glo™ Assay (Promega #: V8071) • Substrate: […] Axltide • Enzyme: 100 ng/μL RON Kinase • ATP: 10 mM • ADP-Glo™ Reagent • Kinase Detection Reagent • 384-well white assay plates Kinase assay was done by following instructions from the kit. Briefly, a ten-point serial dilution of compound was prepared at 5× in assay buffer with the final assay concentrations starting at 300 nM, 100 nM, 30 nM, 10 nM . . . 0 nM. Enzyme, substrate, and ATP were used at 25 ng, 2000 ng, and 25 µM, respectively. The assay plate was set up by mixing the components in a total reaction volume of 10 μL per well. The plate was centrifuged gently for 10 seconds and incubated at room temperature (RT) for 60 minutes in the dark. The ADP-Glo Reagent and kinase detection reagent were added and incubated as recommended. The reaction was quantified by measuring luminescence on the Perkin Elmer Envision plate reader.
In general terms: In ADP-Glo the light output rises with the ADP produced.

T1 sequence (Q04912 25-1400): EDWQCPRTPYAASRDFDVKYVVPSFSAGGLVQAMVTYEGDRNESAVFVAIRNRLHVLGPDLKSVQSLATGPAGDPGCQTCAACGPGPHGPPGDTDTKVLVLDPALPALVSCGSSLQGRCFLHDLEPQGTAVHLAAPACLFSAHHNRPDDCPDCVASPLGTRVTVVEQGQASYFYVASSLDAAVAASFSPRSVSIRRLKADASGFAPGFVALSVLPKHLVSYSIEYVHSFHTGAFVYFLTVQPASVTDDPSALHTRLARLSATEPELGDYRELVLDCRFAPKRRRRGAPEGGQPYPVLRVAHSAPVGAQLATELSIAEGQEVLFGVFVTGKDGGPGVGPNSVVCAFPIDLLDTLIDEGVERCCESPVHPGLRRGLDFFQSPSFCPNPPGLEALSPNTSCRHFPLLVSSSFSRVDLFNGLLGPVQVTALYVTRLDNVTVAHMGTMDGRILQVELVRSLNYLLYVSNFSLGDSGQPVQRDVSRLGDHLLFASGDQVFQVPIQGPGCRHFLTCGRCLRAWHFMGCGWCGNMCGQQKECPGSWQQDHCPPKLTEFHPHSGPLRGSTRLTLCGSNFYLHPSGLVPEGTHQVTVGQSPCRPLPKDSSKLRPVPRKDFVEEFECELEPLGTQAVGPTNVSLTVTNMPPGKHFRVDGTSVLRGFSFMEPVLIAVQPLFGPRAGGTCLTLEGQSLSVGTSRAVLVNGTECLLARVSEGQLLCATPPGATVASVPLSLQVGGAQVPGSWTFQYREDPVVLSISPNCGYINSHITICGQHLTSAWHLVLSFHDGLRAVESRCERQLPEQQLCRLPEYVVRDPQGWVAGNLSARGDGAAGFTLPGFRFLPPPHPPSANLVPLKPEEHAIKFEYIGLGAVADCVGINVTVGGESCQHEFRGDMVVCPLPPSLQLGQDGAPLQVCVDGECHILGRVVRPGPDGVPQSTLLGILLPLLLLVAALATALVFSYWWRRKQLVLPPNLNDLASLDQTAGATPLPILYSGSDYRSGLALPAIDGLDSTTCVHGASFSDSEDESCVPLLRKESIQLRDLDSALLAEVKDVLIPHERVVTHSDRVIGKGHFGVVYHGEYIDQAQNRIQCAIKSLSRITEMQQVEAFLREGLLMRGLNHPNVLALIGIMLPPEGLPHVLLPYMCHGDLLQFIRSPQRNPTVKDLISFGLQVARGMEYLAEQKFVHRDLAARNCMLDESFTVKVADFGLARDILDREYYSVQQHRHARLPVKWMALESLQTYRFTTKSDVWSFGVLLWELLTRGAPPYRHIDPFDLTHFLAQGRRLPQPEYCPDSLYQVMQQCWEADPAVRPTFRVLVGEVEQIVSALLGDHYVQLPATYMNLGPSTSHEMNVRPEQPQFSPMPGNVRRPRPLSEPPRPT

`CP(C)(=O)c1c(Oc2ccc(NC(=O)c3cnn(-c4ccc(F)cc4)c3C(F)(F)F)cc2F)ccnc1N` [Compound 17, N-(4-((2-amino-3-(dimethylphosphoryl)pyridin-4-yl)oxy)-3-fluorophenyl)-1-(4-fluorophenyl)-5-(trifluoromethyl)-1H-pyrazole-4-carboxamide]: the “Fold Selectivity (cMET/RON)” value is “+++ (represents a value greater than 3 up to 50)”.

With `C=CC(=O)N1CCN(CCc2cccc(Nc3nccc(Oc4ccc(NC(=O)c5cnn(-c6ccc(F)cc6)c5C(F)(F)F)cc4F)n3)c2)CC1` [Compound 43, N-[4-(2-{m-[2-(4-acryloyl-1-piperazinyl)ethyl]phenylamino}-4-pyrimidinyloxy)-3-fluorophenyl]-1-(p-fluorophenyl)-5-(trifluoromethyl)-4-pyrazolecarboxamide], the “Fold Selectivity (cMET/RON)” value was “+++ (represents a value greater than 3 up to 50)”.

Turning to `Cn1cc(-c2c(Oc3ccc(NC(=O)c4ccnc(-c5ccc(F)cc5)c4C(F)(F)F)cc3F)ccnc2N)cn1` [Compound 12, N-(4-((2-amino-3-(1-methyl-1H-pyrazol-4-yl)pyridin-4-yl)oxy)-3-fluorophenyl)-2-(4-fluorophenyl)-3-(trifluoromethyl)isonicotinamide], the “Fold Selectivity (cMET/RON)” value is given as “+++ (represents a value greater than 3 up to 50)”. The result for `C=CC(=O)N1CCCC(c2cccc(Nc3nccc(Oc4ccc(NC(=O)c5cnn(-c6ccc(F)cc6)c5C(F)(F)F)cc4F)n3)c2)C1` (stereo not shown) [Compound 38, N-(4-((2-((3-(1-acryloylpiperidin-3-yl)phenyl)amino)pyrimidin-4-yl)oxy)-3-fluorophenyl)-1-(4-fluorophenyl)-5-(trifluoromethyl)-1H-pyrazole-4-carboxamide] reads “+++ (represents a value greater than 3 up to 50)”; that for `Cn1cc(-c2cc3nccc(Oc4ccc(NC(=O)c5cnn(-c6ccc(F)cc6)c5C(F)(F)F)cc4F)n3n2)cn1` [Compound 7, N-(3-fluoro-4-((2-(1-methyl-1H-pyrazol-4-yl)pyrazolo[1,5-a]pyrimidin-7-yl)oxy)phenyl)-1-(4-fluorophenyl)-5-(trifluoromethyl)-1H-pyrazole-4-carboxamide], “+++ (represents a value greater than 3 up to 50)”; that for `O=C(Nc1ccc(Oc2ccnc(Nc3cccc(CCN4CCN(C5CC5)CC4)c3)n2)c(F)c1)c1cnn(-c2ccc(F)cc2)c1C(F)(F)F` [Compound 49, N-(4-((2-((3-(2-(4-cyclopropylpiperazin-1-yl)ethyl)phenyl)amino)pyrimidin-4-yl)oxy)-3-fluorophenyl)-1-(4-fluorophenyl)-5-(trifluoromethyl)-1H-pyrazole-4-carboxamide], “++ (represents a value greater than 0.5 up to 3)”. Under `Cn1cc(-c2c(Oc3ccc(NC(=O)c4cnn(-c5ccc(F)cc5)c4C(F)(F)F)cc3F)ccnc2N)cn1` [Compound 5, N-(4-((2-amino-3-(1-methyl-1H-pyrazol-4-yl)pyridin-4-yl)oxy)-3-fluorophenyl)-1-(4-fluorophenyl)-5-(trifluoromethyl)-1H-pyrazole-4-carboxamide] stands “+++ (represents a value greater than 3 up to 50)”; under `C=CC(=O)N1CCN(C(=O)Cc2cccc(Nc3nccc(Oc4ccc(NC(=O)c5cnn(-c6ccc(F)cc6)c5C(F)(F)F)cc4F)n3)c2)CC1` [Compound 50, N-[4-(2-{m-[2-(4-acryloyl-1-piperazinyl)-2-oxoethyl]phenylamino}-4-pyrimidinyloxy)-3-fluorophenyl]-1-(p-fluorophenyl)-5-(trifluoromethyl)-4-pyrazolecarboxamide], “+++ (represents a value greater than 3 up to 50)”; under `CC(C)N1CCN(CCc2cccc(Nc3nccc(Oc4ccc(NC(=O)c5cnn(-c6ccc(F)cc6)c5C(F)(F)F)cc4F)n3)c2)CC1` [Compound 48, N-[3-fluoro-4-(2-{m-[2-(4-isopropyl-1-piperazinyl)ethyl]phenylamino}-4-pyrimidinyloxy)phenyl]-1-(p-fluorophenyl)-5-(trifluoromethyl)-4-pyrazolecarboxamide], “++ (represents a value greater than 0.5 up to 3)”.

Regarding `O=C(Nc1ccc(Oc2ccnc3cc(Br)nn23)c(F)c1)c1cnn(-c2ccc(F)cc2)c1C(F)(F)F` [Compound 4, N-(4-((2-bromopyrazolo[1,5-a]pyrimidin-7-yl)oxy)-3-fluorophenyl)-1-(4-fluorophenyl)-5-(trifluoromethyl)-1H-pyrazole-4-carboxamide], the “Fold Selectivity (cMET/RON)” value is “++ (represents a value greater than 0.5 up to 3)”. Take `O=C(Nc1ccc(Oc2ccnc(Nc3cccc(N4CCOCC4)c3)n2)c(F)c1)c1cnn(-c2ccc(F)cc2)c1C(F)(F)F` [Compound 1, N-(3-fluoro-4-((2-((3-morpholinophenyl)amino)pyrimidin-4-yl)oxy)phenyl)-1-(4-fluorophenyl)-5-(trifluoromethyl)-1H-pyrazole-4-carboxamide]: the “Fold Selectivity (cMET/RON)” value is recorded as “+++ (represents a value greater than 3 up to 50)”. The result for `Cn1cnc(-c2cc3nccc(Oc4ccc(NC(=O)c5cnn(-c6ccc(F)cc6)c5C(F)(F)F)cc4F)n3n2)c1` [Compound 8, N-(3-fluoro-4-((2-(1-methyl-1H-imidazol-4-yl)pyrazolo[1,5-a]pyrimidin-7-yl)oxy)phenyl)-1-(4-fluorophenyl)-5-(trifluoromethyl)-1H-pyrazole-4-carboxamide] reads “+++ (represents a value greater than 3 up to 50)”; that for `CCCN1CCN(CCc2cccc(Nc3nccc(Oc4ccc(NC(=O)c5cnn(-c6ccc(F)cc6)c5C(F)(F)F)cc4F)n3)c2)CC1` [Compound 47, N-(3-Fluoro-4-((2-((3-(2-(4-Propylpiperazin-1-Yl)Ethyl)Phenyl)Amino)Pyrimidin-4-Yl)Oxy)Phenyl)-1-(4-Fluorophenyl)-5-(Trifluoromethyl)-1H-Pyrazole-4-Carboxamide], “+++ (represents a value greater than 3 up to 50)”; that for `CP(C)(=O)c1cncnc1Oc1ccc(NC(=O)c2cnn(-c3ccc(F)cc3)c2C(F)(F)F)cc1F` [Compound 54, N-{4-[5-(dimethylphosphoryl)-4-pyrimidinyloxy]-3-fluorophenyl}-1-(p-fluorophenyl)-5-(trifluoromethyl)-4-pyrazolecarboxamide], “+++ (represents a value greater than 3 up to 50)”.

With `C=CC(=O)NC1CCCC(Nc2nccc(Oc3ccc(NC(=O)c4cnn(-c5ccc(F)cc5)c4C(F)(F)F)cc3F)n2)C1` (single isomer, unassigned) [44 (peak 1), N-(4-((2-((3-acrylamidocyclohexyl)amino)pyrimidin-4-yl)oxy)-3-fluorophenyl)-1-(4-fluorophenyl)-5-(trifluoromethyl)-1H-pyrazole-4-carboxamide], the “Fold Selectivity (cMET/RON)” value is listed as “+++ (represents a value greater than 3 up to 50)”.

As for `Cn1cc(-c2c(Oc3ccc(NC(=O)c4nnn(-c5ccc(F)cc5)c4C(F)(F)F)cc3F)ccnc2N)cn1` [Compound 6, N-(4-((2-amino-3-(1-methyl-1H-pyrazol-4-yl)pyridin-4-yl)oxy)-3-fluorophenyl)-1-(4-fluorophenyl)-5-(trifluoromethyl)-1H-1,2,3-triazole-4-carboxamide], the “Fold Selectivity (cMET/RON)” value is recorded as “++ (represents a value greater than 0.5 up to 3)”.
